From patent US12325744B2, “Methods for reducing post-operative cognitive dysfunction (POCD)” (The Kennedy Trust for Rheumatology Research, priority 2010, dated 2025)
Entries after “also recorded” stand apart in the source; their conditions may differ.

Legend:
C57-BL6 mice = experiment: Fear conditioning, freezing to context after tibial surgery; type: in vivo; conditions: wild type mice, surgery 30 min after training, tested three days later
Procedure: Fear conditioning tests. Mice were conditioned 30 minutes or 3 days prior to intervention by training with two cycles of tone and foot-shock pairings. In delay fear conditioning a foot-shock was administered during the last 2 seconds of each 20 seconds-lasting tone.
In trace fear conditioning, the foot-shock onset, lasting 2 seconds as in the previous paradigm, followed a 20-second gap after each tone termination. Three days after conditioning, mice were placed back in the original conditioning chamber for 270 seconds, where no tone or shock were presented, to assess recall of contextual fear memory. After 3 h mice were placed in a novel environment (different context from training) to test for auditory-cued memory. Following an initial baseline period of 135 seconds during which freezing was scored in absence of noise, the auditory cue was presented for the final 135 seconds of the test, and freezing was again recorded. (For further details please refer to supplemental methods).
The behavioral study was conducted using a conditioning chamber (Med. Associates Inc., St. Albans, VT, USA). The back- and the side-walls of the chamber were made of aluminium, whereas the front door and the ceiling were of transparent Plexiglas. The floor of the chamber consisted of 36 stainless steel rods (1 mm diameter) spaced 0.5 cm apart (center-to-center). […]

microglia = experiment: Hippocampal microglia anti-CD11b immunohistochemistry grading after LPS injection; type: in vivo, mice; conditions: LPS 1 mg/kg i.p.; IL-1Ra pre-treatment; days 1 and 3
Procedure: (§1) Treatment. LPS derived from Escherichia Coli endotoxin ([…], InvivoGen, USA, 1 mg/kg) was dissolved in normal saline and injected intraperitoneally. IL-1Ra (Amgen, Anakinra 100 mg/kg, Nederlands) was given subcutaneously immediately before LPS administration. Dose response curve from LPS or IL-1Ra was obtained from our pilot studies to provoke or to suppress moderate degree of microglia activation respectively. Control animals were injected with equivalent volumes (0.1 ml) of saline. Mice from each treatment group were randomly assigned for assessment of either cytokine response or cognitive behavior, in order to obviate possible confounding effects of behavioral testing on inflammatory markers.
Immunohistochemistry (IHC). Mice were euthanized and perfused transcardially with ice-cold heparinized 0.1M phosphate buffer solution (PBS) followed by 4% paraformaldehyde in 0.1M PBS at pH 7.4 (VWR International, UK). The brains were harvested and post-fixed in 4% paraformaldehyde in 0.1M PBS at 4° C. and cryoprotected in 0.1M PBS solutions containing 15% sucrose for 24 hours (VWR International, UK) and then 30% sucrose for a further 48 hours. Brain tissue was freeze-mounted in OCT embedding medium (VWR International, UK). The 25 μm thick coronal sections of the hippocampus were cut sequentially in groups of 6 and mounted on Superfrost® plus slides (Menzel-Glaser, Germany). […]

C57BL/6 male mice [1] = experiment: Trace fear conditioning, contextual fear response after LPS injection; type: in vivo; conditions: LPS within 30 min after training, tested day 3, IL-1Ra pre-treatment
Procedure: as §1
Behavioral measurement (conditioning). The behavioral study was conducted using a dedicated conditioning chamber (Med Associates Inc., USA). Mice were trained and tested on separate days. LPS was injected within 30 minutes following training. […] Three days after training, mice were returned to the same chamber in which training occurred (context), and freezing behavior was recorded. […] Approximately 3 h later, freezing was recorded in a novel environment and in response to the cue (tone). The auditory cue was then presented for 3 min, and freezing scored again. Freezing scores for each subject were expressed as a percentage for each portion of the test. […]

C57BL/6 male mice [2] = experiment: Observation of sickness behavior after LPS injection; type: in vivo; conditions: LPS 1 mg/kg i.p.; IL-1Ra pre-treatment
Procedure: Animals. All the experiments were conducted under the UK Home Office approved license. Wild type C57BL/6 male mice, 12-14 weeks old, weighting 25-30 g were used and housed in groups of five in a 12-h-12-h light dark cycle, with controlled temperature and humidity with free access to food and water. IL-1R^−/− (kindly provided by Nancy Rothwell, University of Manchester) were bred in-house on a C57BL/6 background and age-matched to wild type counterparts. Seven days of acclimatization were allowed before starting any experiment. All the animals were checked on a daily basis and evidence of poor grooming, huddling, piloerection, weight loss, back arching and abnormal activity, were excluded in the experiments.
as §1, with “Mice from each treatment group were randomly assigned for assessment of either cytokine response or cognitive behavior, in order to obviate possible confounding effects of behavioral testing on inflammatory markers.” left out

IL-1Ra: IL-1 receptor antagonist (Amgen, Anakinra)
Freezing to context (delay fear conditioning) after surgery, effect of treatment (C57-BL6 mice): prevented the decrement in postoperative freezing behavior; also recorded: significantly reduced the surgery-induced decrement in freezing behavior | Reactive microglia in hippocampus after LPS, effect of IL-1Ra (microglia): Reduction in the number of reactive microglia was observed; also recorded: attenuated by IL-1Ra treatment; also recorded: effectively reduced the number of reactive microglia at days 1 and 3 | Contextual fear response (freezing) after LPS, effect of IL-1Ra (C57BL/6 male mice [1]): significantly ameliorated the memory retention at day 3; also recorded: significantly ameliorated this cognitive dysfunction | Symptoms of sickness behavior after LPS, effect of IL-1Ra (C57BL/6 male mice [2]): abolished the main symptoms of sickness behavior
